Columns and labels:
[1] = system: acetaldehyde dehydrogenase; settings: cited from earlier work
[2] = oral DSF, cited from earlier work
[3] = system: C6 glioma tumor; settings: oral administration to mice; cited from earlier work
[4] = target: Cu/Zn Suproxide dismutase (SOD-1) (Homo sapiens, UniProt P00441); settings: both in vivo and in vitro; cited from earlier work
[5] = system: bovine capillary endothelial (BCE) cells; settings: cited from earlier work
[6] = system: advanced stage IV metastatic melanoma; settings: daily 250-500 mg disulfuram and 50 mg zinc gluconate; three months from onset of therapy; cited from earlier work
[7] = system: Lewis lung carcinoma; settings: oral administration to mice; cited from earlier work
[8] = system: cancer; settings: cited from earlier work
[9] = system: angiogenesis; settings: oral administration, CD1 nude mice; cited from earlier work
[10] = cited from earlier work
[11] = system: human malignant cell lines; settings: combination of disulfuram and metal ions, in vitro; cited from earlier work
[12] = system: non-small cell lung cancer; assay: Phase II trial of disulfuram with Cisplatin/Vinorelbine in non-small cell lung cancer; type: in vivo; settings: 120 mg daily (40 mg three times a day) for eighteen weeks, human patients
Source text: A phase II, multicenter, randomized, double blind study was designed to assess the dose response of humans suffering from lung cancer to Disulfuram or a disulfuram-Cisplatin/Vinorelbine combination. Patients with histogically or cytologically documented advanced (i.e. stage Mb or stage IV), or recurrent non-small cell lung cancer, previously untreated with systemic anti-tumor therapy were selected for the study. The patients were randomly assigned to the standard first line hospital chemotherapy treatment (Cisplatin/Vinorelbine) with placebo or Cisplatin/Vinorelbine in combination with disulfuram. Treatment was provided in cycles of 21-day time periods until progression or for a maximum of 6 cycles.
The patients were further assessed for overall survival, time to progression and duration of response.
Standard administration regimens for cisplatin and Vinorelbine were followed.
Placebo capsules included the lactose carrier but were devoid of disulfuram. Each patient received the disulfuram or placebo from the treating physician.

[13] = target: T1, aldehyde dehydrogenase (Rattus norvegicus, UniProt P11884); settings: cited from earlier work
T1 sequence (P11884 20-519): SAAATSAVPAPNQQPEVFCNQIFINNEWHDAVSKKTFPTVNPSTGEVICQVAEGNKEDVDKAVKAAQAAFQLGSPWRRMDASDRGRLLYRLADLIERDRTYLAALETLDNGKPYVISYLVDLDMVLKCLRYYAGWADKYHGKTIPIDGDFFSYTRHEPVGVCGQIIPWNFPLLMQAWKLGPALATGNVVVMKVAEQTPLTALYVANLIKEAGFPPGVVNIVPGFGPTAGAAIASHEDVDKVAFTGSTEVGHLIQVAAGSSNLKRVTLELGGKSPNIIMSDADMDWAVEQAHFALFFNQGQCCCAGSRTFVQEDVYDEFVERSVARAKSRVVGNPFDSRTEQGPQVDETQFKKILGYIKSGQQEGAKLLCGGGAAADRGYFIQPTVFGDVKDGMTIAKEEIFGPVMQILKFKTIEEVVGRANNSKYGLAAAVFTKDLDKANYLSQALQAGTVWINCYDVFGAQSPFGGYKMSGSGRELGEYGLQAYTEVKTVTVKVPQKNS

[14] = cultured BCE cells, prevented by copper and antioxidants

Sequence of Cu/Zn Suproxide dismutase (SOD-1) (P00441 whole entry, species assumed): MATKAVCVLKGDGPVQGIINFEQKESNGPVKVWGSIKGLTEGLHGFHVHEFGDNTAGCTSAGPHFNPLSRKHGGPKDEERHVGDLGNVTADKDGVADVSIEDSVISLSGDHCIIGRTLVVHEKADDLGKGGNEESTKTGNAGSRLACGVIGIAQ

SMILES: CCN(CC)C(=S)SSC(=S)N(CC)CC [disulfuram, bis(diethylthiocarbamoyl) disulfide]
- concentration of acetaldehyde in the blood versus same amount of alcohol alone ([1]; after alcohol intake under the influence of disulfuram): 5 to 10 times higher
- onset of effect ([1]; single dose unit): 1 to 2 h
- time of peak effect ([1]; single dose unit): about 12 hours
- time effect is sustained ([1]; single dose unit, depends on liver enzymes): 12 to 72 h
- duration of effects of a single dose in some individuals ([1]; single dose, some individuals): up to 2 weeks
- T1/2 ([2]; elimination kinetics): 7.3 h
- average time to reach maximum plasma concentration [2]: 8 to 10 h
- C6 glioma tumor development [3]: significant inhibition
- activity of Cu/Zn Suproxide dismutase (SOD-1) [4]: inhibits activity
- level of glutathione ([5]; BCE cells): reduced the level of glutathione
- DNA synthesis [5, 14]: inhibition of DNA synthesis
- apoptosis [5, 14]: induction of apoptosis
- reduction in tumor size [6]: > 50%
- reduction in the metastatic load of Lewis lung carcinoma [7]: 10-19 fold
- response rate, time to progression, or median survival ([8]; about 2000 mg/subject disulfuram with 100 mg/m2 cisplatin once every 3-4 weeks, versus cisplatin alone): no statistically-significant difference
- gastrointestinal and ototoxicities ([8]; about 2000 mg/subject disulfuram with 100 mg/m2 cisplatin): enhanced
- angiogenesis [9]: inhibited angiogenesis
- soluble in alcohol ([10]; alcohol): about 3.8 g in 100 ml
- soluble in water ([10]; water): about 20 mg in 100 ml
- proliferation of human malignant cell lines [11]: inhibited the proliferation
- time to progression and survival of non-small cell lung cancer [12]: extending time to progression and survival

SMILES: CCN(CC)C(=O)SC [Me-DTC, diethylthiomethylcarbamate]
- inhibition of aldehyde dehydrogenase [13]: most powerful irreversible inhibitor
